Measurements as given in ChEMBL document CHEMBL1151665, “Plant anticancer agents, XLI. Cardiac glycosides from Streblus asper” (1985).
Converted amounts (≈) assume the structure as drawn.

Test system: KB
Assay: Cytotoxicity against human KB cells
Conditions: read-out: ED50

`CO[C@H]1[C@H](O[C@H]2CC[C@]3(C=O)[C@H]4CC[C@]5(C)[C@@H](C6=CC(=O)OC6)CC[C@]5(O)[C@@H]4CC[C@]3(O)C2)O[C@H](C)[C@H](O)[C@@H]1OC` [STREBLOSIDE] showed an EC50 of 0.035 µg/mL (≈ 0.0605 µM).

`CO[C@H]1[C@H](O[C@H]2CC[C@]3(C=O)[C@H]4CC[C@]5(C)[C@@H](C6=CC(=O)OC6)CC[C@]5(O)[C@@H]4CC[C@]3(O)C2)O[C@H](C)[C@@H](O)[C@@H]1OC` [MANSONIN] gave an EC50 of 0.042 µg/mL (≈ 0.0726 µM).
